Results published in US6838436B1, “Inhibitors of proteasomal activity for stimulating bone growth” (Osteoscreen Inc., priority 1998, dated 2005).
pEC50, pIC50: −log10 of the molar value. Like-named read-outs stand apart in the source and are kept apart here. Where a SMILES comes first, the peptide text is derived from it. [ ]: non-standard residue; d: D form. The star is where a group is joined. Nva = CCC[C@H](N)C(=O)O; Cbz = O=C(OCc1ccccc1)*; OtBu = CC(C)(C)O*

Key:
[1] = target: T1, 20S thermophila proteasome (Methanosarcina thermophila, UniProt Q9P992); assay: biochemical; settings: for EC50: read-out: Proteasome Activity (ED50-μM)
T1 construct: purchased CalBiochem, San Diego, Calif
T1 sequence (Q9P992 10-210): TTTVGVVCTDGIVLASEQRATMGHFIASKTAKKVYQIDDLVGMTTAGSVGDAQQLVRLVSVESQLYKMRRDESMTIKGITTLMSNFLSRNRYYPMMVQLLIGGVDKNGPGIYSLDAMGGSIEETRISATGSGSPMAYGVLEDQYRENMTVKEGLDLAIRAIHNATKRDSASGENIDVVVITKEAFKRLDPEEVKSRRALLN
T1 sequence (Q59565 1-247 partner): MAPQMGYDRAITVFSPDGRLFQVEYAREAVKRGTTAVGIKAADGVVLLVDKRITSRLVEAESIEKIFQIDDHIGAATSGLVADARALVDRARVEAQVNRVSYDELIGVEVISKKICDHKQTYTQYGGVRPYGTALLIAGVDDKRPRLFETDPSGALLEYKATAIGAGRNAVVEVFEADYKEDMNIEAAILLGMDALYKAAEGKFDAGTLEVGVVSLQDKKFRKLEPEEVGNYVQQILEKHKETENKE
Description: The assay involves incubating the potential inhibitor with 20S thermophila proteasomes which, in purified form, are commercially available, with a fluorogenic peptide substrate. The presence of an inhibitor will reduce the amount of fluorescence generated by the action of the proteasome fraction on the fluorogenic peptide. This assay is described in further detail in Coux, O., et al., N Rev Biochem (1996) 65:801; Adams, J., et al., Cancer Res (1999) 59:2615; and Craiu, A., et al., J Biol Chem (1997) 272:13437. Further reports are set forth in Hilt, W., et al., Trans Biochem Sci (1996) 21:96; Peters, J., Trends Biochem Sci (1994) 19:377; Maupin-Furlow, J. A., et al., J Biol Chem (1995) 270:28617; and Jensen, T. J., et al., Cell (1995) 83:129. Fluorogenic substrates and purified proteasomes are available, for example, from CalBiochem, San Diego, Calif.
Purified 20S thermophila proteasomes and the fluorogenic peptide substrate Suc-Leu-Leu-Val-Tyr-AMC (SEQ ID NO:3) are available from CalBiochem, San Diego, Calif. Briefly, serial dilutions of the inhibitor to be tested were mixed with proteasome solution at a concentration of proteasome of 0.01 mg/ml. After 30 min incubation at 37° C., substrate solution at a final concentration of 25-30 μg/ml was added and the mixture incubated at 37° C. and then read at 15 min, 30 min, and 60 min in a Fluoroscan instrument. The percentage diminution in fluorescence in the presence as compared to the absence of inhibitor is then calculated.

hair follicles = assay: Hair follicle number after injection over the calvaria (Example 8); type: in vivo, Swiss ICR mice; settings: for number of hair follicles: administered in the same way
Text: The assay described above to assess the effect of compounds on calvarial bone growth can also be used to assess the ability of compounds to stimulate hair growth. The test compound or appropriate control vehicle is applied to the upper and lower back of male ICR Swiss white mice either topically or by subcutaneous injection. The vehicle is selected as appropriate for the compound to be tested and for the route of administration. Optionally, the hair in the test area may be removed prior to administration. After a suitable interval, typically 7 days, the mice are anesthetized and a biopsy of the dorsal treatment area is taken using a 6 mm dermal punch. The specimens are fixed in 10% buffered formalin and imbedded in paraffin wax, and sectioned and stained to observe hair follicles. In addition, photography can be used to observe and record hair growth; typically such growth is observed after 14-18 days. After a suitable interval, typically 21 days, the animals may be euthanized and the hair analyzed for fiber analysis and the tissue from the treatment area analyzed for quantitation of hair follicles.
In more detail, male ICR Swiss white mice, aged 4-6 weeks and weighing 13-26 gm, are employed, using 4-5 mice per group. The calvarial bone growth assay is performed as described above. Briefly, the test compound or appropriate control vehicle is injected into the subcutaneous tissue over the right calvaria of normal mice. Typically, the control vehicle is the vehicle in which the compound was solubilized, and is PBS containing 5% DMSO or is PBS containing Tween (2 μl/10 ml). The animals are sacrificed on day 14 and bone growth measured by histomorphometry. Bone samples for quantitation are cleaned from adjacent tissues and fixed in 10% buffered formalin for 24-48 hours, decalcified in 14% EDTA for 1-3 weeks, processed through graded alcohols; and embedded in paraffin wax. Three to five […] sections of the calvaria are prepared, and representative sections are selected for histomorphometric assessment of the effects on bone formation and bone resorption. Sections are measured by using a camera lucida attachment to trace directly the microscopic image onto a digitizing plate. Bone changes are measured on sections cut 200 μm apart, over 4 adjacent 1×1 mm fields on both the injected and noninjected sides of the calvaria. New bone is identified by its characteristic woven structure, and osteoclasts and osteoblasts are identified by their distinctive morphology. Histomorphometry software (OsteoMeasure, Osteometrix, Inc., Atlanta) is used to process digitizer input to determine cell counts and measure areas or perimeters.
The in vivo bone calvarial growth assay of Example 3 was modified to observe the number of hair follicles in treated mice. […]

[2] = read-out: % Proteasomal Activity

Compound	pIC50 [1]	number of hair follicles (hair follicles; dose not given)	pEC50 [1]	number of hair follicles (hair follicles; 10 mg/kg)	EC50 [1]	remaining activity at 0.002 µM [1, 2]	remaining activity at 0.004 µM [1, 2]	remaining activity at 0.008 µM [1, 2]	remaining activity at 0.016 µM [1, 2]	remaining activity at 0.032 µM [1, 2]	remaining activity at 0.062 µM [1, 2]	remaining activity at 0.125 µM [1, 2]	remaining activity at 0.25 µM [1, 2]	remaining activity at 0.5 µM [1, 2]	remaining activity at 1 µM [1, 2]	remaining activity at 2 µM [1, 2]	number of hair follicles versus control mice (hair follicles; 5mg/kg/day injected three times a day for 5 days over the calvaria, sacrificed sixteen days later)
CC[C@H](C)[C@H](NC(=O)[C@H]([C@@H](C)CC)N(C)C(C)=O)C(=O)N[C@H](C(=O)N[C@@H](CC(C)C)C(=O)[C@@]1(C)CO1)[C@@H](C)O [Epoxomicin]	~7.22																
CC(=O)N[C@@H](CSC(=O)[C@]1([C@@H](O)C(C)C)NC(=O)[C@H](C)[C@@H]1O)C(=O)O [Lactacystin, lactacystin]		stimulated an increase in the number of hair follicles	5.82														
CCC[C@@H](C=O)NC(=O)[C@H](CC(C)C)NC(=O)[C@H](CC(C)C)NC(=O)OCc1ccccc1 [MG-115, N-carbobenzoyl-Leu-Leu-Nva-CHO] (Cbz-Leu-Leu-[Nva]-aldehyde)				stimulated an increase in the number of hair follicles	1 µM												
CC(C)C[C@@H](C=O)NC(=O)[C@@H](CC(C)C)NC(=O)[C@H](CC(C)C)NC(=O)OCc1ccccc1 [MG-132, N-carbobenzoyl-Leu-Leu-Leu-CHO] (Cbz-Leu-[dL]-Leu-aldehyde)				stimulated an increase in the number of hair follicles	0.3 µM	101%	99%	101%	100%	98%	90%	87%	73%	57%	44%	19%	
CC[C@H](C)[C@H](NC(=O)OCc1ccccc1)C(=O)N[C@@H](CCC(=O)OC(C)(C)C)C(=O)N[C@@H](C)C(=O)N[C@H](C=O)CC(C)C [PSI, N-carbobenzoyl-Ile-Glu-(OtBu)-Ala-Leu-CHO] (Cbz-IE(OtBu)AL-aldehyde)	~7.22		7.46			100%	95%	94%	86%	76%	54%	30%	11%	6%	5%		strikingly large increase in the number of hair follicles
